Read-outs that look alike come from different tables or passages of the source. Each block holds one compound with its values, some of them ahead of it.
Biological target: T1, recombinant IRAP (Homo sapiens, UniProt Q9UIQ6)
T1 construct: expressed in transfected cells; host or cells: HEK 293T
Assay: IRAP enzymatic assay (hydrolysis of Leu-MCA)
Assay type: biochemical
Details: for Ki: calculated from IC50, substrate Leu-MCA; for IC50: substrate Leu-MCA
Procedure: An in vitro enzymatic assay was used to initially assess IRAP inhibitory activity.
Crude membranes were prepared from HEK 293T cells transfected with IRAP or empty vector, then solubilized in buffer consisting of 50 mM Tris-HCl, 1% Triton X-100, pH 7.4 at 4° C. under agitation over 5 h. After solubilization, the membranes were pelleted by centrifugation at 23,100 g for 15 min at 4° C., and the supernatant was reserved as the source of IRAP activity. The enzymatic activities of recombinant IRAP were determined by the hydrolysis of the synthetic substrate Leu-MCA (Sigma-Aldrich, Missouri, USA) monitored by the release of a fluorogenic product, MCA, at excitation and emission wavelengths of 380 and 440 nm, respectively. Assays were performed in 96-well plates; each well contains between 0.2-10 μg solubilized membrane protein, a range of concentration of substrate in a final volume of 100 μL 50 mM Tris-HCl buffer (pH 7.4). Non-specific hydrolysis of the substrate was corrected by subtracting the emission from incubations with membranes transfected with empty vector. Reactions proceeded at 37° C. for 30 min within a thermostatted FLEX station fluorescence microplate reader (Molecular Devices, Sunnyvale, Calif.). The kinetic parameters (Km and V) were determined by non-linear fitting of the Michaelis-Menten equation (GraphPad Prism, GraphPad Software Inc., CA, USA); final concentrations of Leu-MCA of 15.6 μM-1 mM. Inhibitor constants (Ki) for the competitive inhibitors were calculated from the relationship IC50=[…], where IC50 values were determined over a range of inhibitor concentrations (10^−9 to 10^−4 M). Km values of IRAP for Leu-MCA were determined from the kinetic studies. Binding affinities of the compounds to IRAP were examined by monitoring the inhibition of the hydrolysis of Leu-MCA in the presence of increasing concentrations of the compounds (10^−8 to 10^−3 M). All data obtained were from at least three separate experiments performed in duplicate.
The results for some compounds of Formula (I) are set out below in Tables 2-1 to 2-8. The compounds were obtained commercially (Specs, Interbioscreen Ltd and Chembridge Corporation) or prepared according to the procedures outlined above.

T1 sequence (Q9UIQ6 whole entry): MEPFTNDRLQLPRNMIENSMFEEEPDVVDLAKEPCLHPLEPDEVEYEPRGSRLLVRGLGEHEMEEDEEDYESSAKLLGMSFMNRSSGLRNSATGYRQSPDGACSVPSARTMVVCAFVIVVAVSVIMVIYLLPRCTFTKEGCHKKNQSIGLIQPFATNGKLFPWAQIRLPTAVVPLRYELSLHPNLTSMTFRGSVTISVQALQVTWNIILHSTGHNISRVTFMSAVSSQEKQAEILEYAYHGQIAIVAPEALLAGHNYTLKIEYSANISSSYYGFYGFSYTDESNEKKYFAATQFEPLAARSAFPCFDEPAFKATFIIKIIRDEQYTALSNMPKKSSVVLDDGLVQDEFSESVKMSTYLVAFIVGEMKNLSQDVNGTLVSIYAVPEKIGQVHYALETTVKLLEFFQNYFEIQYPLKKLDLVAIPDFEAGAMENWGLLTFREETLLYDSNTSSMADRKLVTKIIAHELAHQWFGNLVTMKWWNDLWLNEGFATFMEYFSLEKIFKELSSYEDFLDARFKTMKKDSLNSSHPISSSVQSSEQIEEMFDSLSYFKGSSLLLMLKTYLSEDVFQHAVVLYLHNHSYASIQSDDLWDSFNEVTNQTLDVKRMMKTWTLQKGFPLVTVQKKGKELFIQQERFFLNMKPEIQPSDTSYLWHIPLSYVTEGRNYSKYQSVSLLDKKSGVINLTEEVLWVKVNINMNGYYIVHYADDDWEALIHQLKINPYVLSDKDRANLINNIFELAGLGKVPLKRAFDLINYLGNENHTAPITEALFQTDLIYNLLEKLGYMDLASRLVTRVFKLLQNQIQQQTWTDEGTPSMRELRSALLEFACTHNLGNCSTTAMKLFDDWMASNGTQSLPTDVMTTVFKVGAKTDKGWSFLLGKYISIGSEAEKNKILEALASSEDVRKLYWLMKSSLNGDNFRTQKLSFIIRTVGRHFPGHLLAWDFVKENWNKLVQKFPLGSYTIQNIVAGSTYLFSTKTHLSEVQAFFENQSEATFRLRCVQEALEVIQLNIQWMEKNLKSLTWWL

Compound: CCOC(=O)C1=C(C)OC(N)=C(C#N)C1c1cc(Br)c(O)c(OC)c1 (stereo not shown) [Compound 11a]
Ki (Table 2-1): 13.7 µM
IC50 (Table 2-1, read-out: IC50): 23 µM

Compound: CCOC(=O)C1=C(C)OC(N)=C(C#N)C1c1ccc(O)c(OC)c1 (stereo not shown) [Compound 11b]
Ki (Table 2-1): 13.1 µM
IC50 (Table 2-1, read-out: IC50): 22 µM

Compound: CCOC(=O)C1=C(C)OC(N)=C(C#N)C1c1ccc(O)cc1 (stereo not shown) [Compound 11e]
Ki (Table 2-1): 61.3 µM
IC50 (Table 2-1, read-out: IC50): 103 µM

Compound: CCOC(=O)C1=C(C)OC(N)=C(C#N)C1c1ccc2c(c1)OCO2 (stereo not shown) [Compound 11g]
IC50 (Table 2-1, read-out: IC50): > 50 µM

Compound: CCOC(=O)C1=C(C)OC(N)=C(C#N)C1c1cc(OC)c2c(c1)OCO2 (stereo not shown) [Compound 11h]
Ki (Table 2-1): 37.5 µM
IC50 (Table 2-1, read-out: IC50): 63 µM

Compound: CCOC(=O)C1=C(C)OC(N)=C(C#N)C1c1ccc(OC)c(OC)c1 (stereo not shown) [Compound 11i]
IC50 (Table 2-1, read-out: IC50): > 50 µM

Compound: CCOC(=O)C1=C(C)OC(N)=C(C#N)C1c1ccc(C#N)cc1 (stereo not shown) [Compound 11j]
IC50 (Table 2-1, read-out: IC50): > 100 µM

Compound: CCOC(=O)C1=C(C)OC(N)=C(C#N)C1c1ccc(C(=O)O)cc1 (stereo not shown) [Compound 11k, 4-(2-Amino-3-cyano-5-(ethoxycarbonyl)-6-methyl-4H-pyran-4-yl)benzoic Acid]
Ki (Table 2-1): 18.4 µM
IC50 (Table 2-1, read-out: IC50): 31 µM

Compound: CCOC(=O)C1=C(C)OC(N)=C(C#N)C1c1ccc([N+](=O)[O-])cc1 (stereo not shown) [Compound 11l]
IC50 (Table 2-1, read-out: IC50): > 100 µM

Compound: CCOC(=O)C1=C(C)OC(N)=C(C#N)C1c1cccc(C(=O)O)c1 (stereo not shown) [Compound 11m, 3-(2-Amino-3-cyano-5-(ethoxycarbonyl)-6-methyl-4H-pyran-4-yl)benzoic Acid]
IC50 (Table 2-1, read-out: IC50): > 100 µM

Compound: CCOC(=O)C1=C(C)OC(N)=C(C#N)C1c1ccc(OC(C)=O)c(C)c1 (stereo not shown) [Compound 11n, Ethyl 4-(4-acetoxy-3-methylphenyl)-6-amino-5-cyano-2-methyl-4H-pyran-3-carboxylate]
IC50 (Table 2-1, read-out: IC50): > 100 µM

Compound: CCOC(=O)C1=C(C)OC(N)=C(C#N)C1c1cc(C)c(OC(C)=O)c(C)c1 (stereo not shown) [Compound 11o, Ethyl 4-(4-acetoxy-3,5-dimethylphenyl)-6-amino-5-cyano-2-methyl-4H-pyran-3-carboxylate]
IC50 (Table 2-1, read-out: IC50): > 100 µM

Compound: CCOC(=O)C1=C(C)OC(N)=C(C#N)C1c1ccc(-c2ccccn2)cc1 (stereo not shown) [Compound 11p, Ethyl 6-amino-5-cyano-2-methyl-4-(4-(pyridin-2-yl)phenyl)-4H-pyran-3-carboxylate]
IC50 (Table 2-1, read-out: IC50): > 100 µM

Compound: CCOC(=O)C1=C(C)OC(N)=C(C#N)C1c1cccnc1 (stereo not shown) [Compound 11q]
IC50 (Table 2-1, read-out: IC50): > 50 µM

Compound: CCOC(=O)C1=C(C)OC(N)=C(C#N)C1c1ccncc1 (stereo not shown) [Compound 11r]
IC50 (Table 2-1, read-out: IC50): > 100 µM

Compound: CCOC(=O)C1=C(C)OC(N)=C(C#N)C1c1ccc2ccccc2n1 (stereo not shown) [Compound 11s, Ethyl 6-amino-5-cyano-2-methyl-4-(quinolin-2-yl)-4H-pyran-3-carboxylate]
IC50 (Table 2-1, read-out: IC50): 3 to 40 µM

Compound: CCOC(=O)C1=C(C)OC(N)=C(C#N)C1c1cnc2ccccc2c1 (stereo not shown) [Compound 11t, Ethyl 6-amino-5-cyano-2-methyl-4-(quinolin-3-yl)-4H-pyran-3-carboxylate]
IC50 (Table 2-1, read-out: IC50): > 100 µM

Compound: CCOC(=O)C1=C(C)OC(N)=C(C#N)C1c1ccnc2ccccc12 (stereo not shown) [Compound 11u, Ethyl 6-amino-5-cyano-2-methyl-4-(quinolin-4-yl)-4H-pyran-3-carboxylate]
IC50 (Table 2-1, read-out: IC50): > 100 µM

Compound: CCOC(=O)C1=C(CC)OC(N)=C(C#N)C1c1ccc(O)c(OC)c1 (stereo not shown) [Compound 12a]
Ki (Table 2-2): 85.1 µM
IC50 (Table 2-2, read-out: IC50): 143 µM

Compound: CCOC(=O)C1=C(CC)OC(N)=C(C#N)C1c1ccc(O)c(OCC)c1 (stereo not shown) [Compound 12c]
Ki (Table 2-2): 67.2 µM
IC50 (Table 2-2, read-out: IC50): 113 µM

Compound: COC(=O)C1=C(C)OC(N)=C(C#N)C1c1ccc(C(=O)O)cc1 (stereo not shown) [Compound 13b, 4-(2-Amino-3-cyano-5-(methoxycarbonyl)-6-methyl-4H-pyran-4-yl)benzoic Acid]
Ki (Table 2-3): 8.3 µM
IC50 (Table 2-3, read-out: IC50): 14 µM

Compound: COC(=O)C1=C(C)OC(N)=C(C#N)C1c1ccc(O)cc1 (stereo not shown) [Compound 13c]
IC50 (Table 2-3, read-out: IC50): > 100 µM

Compound: COC(=O)C1=C(C)OC(N)=C(C#N)C1c1ccc(O)c(OC)c1 (stereo not shown) [Compound 13d]
Ki (Table 2-3): 8.3 µM
IC50 (Table 2-3, read-out: IC50): 14 µM

Compound: CC(=O)NC1=C(C#N)C(c2ccc(C(=O)O)cc2)C(C(C)=O)=C(C)O1 (stereo not shown) [Compound 16, 4-(2-Acetamido-5-acetyl-3-cyano-6-methyl-4H-pyran-4-yl)benzoic Acid]
Ki (Table 2-6): 4.2 µM

Compound: COc1cc(C2C(C#N)=C(N)Oc3cc(C)oc(=O)c32)cc(Br)c1O (stereo not shown) [Compound 18]
IC50 (Table 2-8, read-out: IC50 μ): 40 µM

The next lines start with the values.

Ki (Table 2-4): 16.7 µM
IC50 (Table 2-4, read-out: IC50): 28 µM
Compound: COc1ccc(C2C(C#N)=C(N)OC(C)=C2C(=O)OCc2ccccc2)cc1OC (stereo not shown) [Compound 14a]

Ki (Table 2-4): 3 µM
IC50 (Table 2-4, read-out: IC50): 5 µM
Compound: CC1=C(C(=O)OCc2ccccc2)C(c2ccc(C(=O)O)cc2)C(C#N)=C(N)O1 (stereo not shown) [Compound 14b, 4-(2-Amino-5-(benzyloxycarbonyl)-3-cyano-6-methyl-4H-pyran-4-yl)benzoic Acid]

IC50 (Table 2-4, read-out: IC50): 10 to 100 µM
Compound: COC(=O)c1ccc(C2C(C#N)=C(N)OC(C)=C2C(=O)OCc2ccccc2)cc1 (stereo not shown) [Compound 14c]

IC50 (Table 2-4, read-out: IC50): > 100 µM
Compound: CC1=C(C(=O)OCc2ccccc2)C(c2ccc(C#N)cc2)C(C#N)=C(N)O1 (stereo not shown) [Compound 14d, Benzyl 6-amino-5-cyano-4-(4-cyanophenyl)-2-methyl-4H-pyran-3-carboxylate]

Ki (Table 2-5): 1.8 µM
IC50 (Table 2-5, read-out: IC50): 2 to 4 µM
Compound: CC(=O)C1=C(C)OC(N)=C(C#N)C1c1ccc(C(=O)O)cc1 (stereo not shown) [Compound 15a, 4-(3-Acetyl-6-amino-5-cyano-2-methyl-4H-pyran-4-yl)benzoic Acid]

Ki (Table 2-5): 3.9 µM
IC50 (Table 2-5, read-out: IC50): 6 to 7 µM
Compound: CC(=O)C1=C(C)OC(N)=C(C#N)C1c1cccc(C(=O)O)c1 (stereo not shown) [Compound 15b, 3-(3-Acetyl-6-amino-5-cyano-2-methyl-4H-pyran-4-yl)benzoic Acid]

Ki (Table 2-5): 16.7 µM
IC50 (Table 2-5, read-out: IC50): 28 µM
Compound: COc1cc(C2C(C#N)=C(N)OC(C)=C2C(C)=O)ccc1O (stereo not shown) [Compound 15c]

Ki (Table 2-5): 59.5 µM
Compound: CC(=O)C1=C(C)OC(N)=C(C#N)C1c1ccc(C#N)cc1 (stereo not shown) [Compound 15d]

Ki (Table 2-5): 10.1 µM
IC50 (Table 2-5, read-out: IC50): 17 µM
Compound: CC(=O)C1=C(C)OC(N)=C(C#N)C1c1ccc2ccccc2n1 (stereo not shown) [Compound 15i, 5-Acetyl-2-amino-6-methyl-4-(quinolin-2-yl)-4H-pyran-3-carbonitrile]

IC50 (Table 2-5, read-out: IC50): > 100 µM
Compound: CC(=O)C1=C(C)OC(N)=C(C#N)C1c1ccc2nccnc2c1 (stereo not shown) [Compound 15j, 5-Acetyl-2-amino-6-methyl-4-(quinoxalin-6-yl)-4H-pyran-3-carbonitrile]

Ki (Table 2-7): 4.2 µM
IC50 (Table 2-7, read-out: IC50): 7 µM
Compound: CCOC(=O)C1=C(C)OC(N)=C(C(=O)OCC)C1c1ccc(C(=O)O)cc1 (stereo not shown) [Compound 17a, 4-(2-Amino-3,5-bis(ethoxycarbonyl)-6-methyl-4H-pyran-4-yl)benzoic Acid]
